The values that follow come from patent US8334403B1, “C-lysine conjugates as pH-controlled, light-activated reagents for double stranded DNA cleavage and associated methods” (Florida State University Research Foundation, Inc., priority 2005, dated 2012).

The subject of data set [1] is pBR322 plasmid DNA. The data set is described as follows: Plasmid relaxation assay: DNA photocleavage of supercoiled plasmid under UV irradiation. It counts as biochemical. Here is the method:
General information. ^1H, ^13C and ^19F NMR were collected on a Varian Gemini 300 MHz NMR spectrometer and a Bruker 300 MHz NMR spectrometer. Mass spectrometry data was collected on a Jeol JMS-600H. UV spectra were recorded on a Shimadzu UV-2100. Fluorescence spectra were obtained with SPEX FluoMax spectrofluorimeter using right-angle geometry. pH was adjusted with AB 15 plus pH meter (Accument) after standardization at 25° C. All buffers were prepared and pH-adjusted at room temperature (25° C.). Plasmid DNA Photocleavage. pBR322 plasmid DNA (4,361 b/p; from BioLabs Inc., 1 μg/μL solution in 10 mM Tris-HCl (pH 8.0), and 1 mM EDTA buffer) was diluted to a concentration of 0.01 μg/μL. The solution containing cleavage agent, DNA (30 μM/bp) in 20 mM sodium phosphate buffer was incubated for 1 hour at 30° C. Samples were placed on ice at a distance of 20 cm from 200 W Hg—Xe lamp (Spectra-Physics, Laser & Photonics Oriel Instruments with long pass filter with 324 nm cut-off wavelength). Electrophoretic Analysis. The gel electrophoresis was carried out in 1×TBE buffer at 80 V using Miligel FisherBiotech Horizontal Electrophoresis System. All gels were run on 1% agarose slab gels. Before loading, the DNA samples were mixed with 0.33 volume of tracking dye containing bromophenol blue (0.25%) and glycerol (30%) in water. After staining in ethidium bromide solution (2 μg/ml) for 1 hour, the gel was washed with water and pictures were taken with Polaroid 3000ISO type 667 film. The relative quantities of the supercoiled, nicked, and linear DNA were calculated by integrating the “area” of each spot by the image analyzer software Total/Lab (Nonlinear Dynamics Ltd., UK). The amount of supercoiled DNA was multiplied by factor of 1.4 to account for reduced ethidium bromide intercalation into supercoiled DNA. pH titration by ^1H-NMR. pH* of compound 8 (3 mM) solution in D2O containing 0.05 wt % 3-(trimethylsilyl)propionic-2,2,3,3-d4 acid, sodium salt (TSP-d4) was adjusted with 10 wt % DCI and NaOD in D2O at 25° C. under argon purged condition. Spectrometric determinations of pKa. pH of 10 μM of compound solution in H2O was adjusted with 10, 100 mM HCl (aq) and NaOH (aq) solution under argon purged condition. Excitation wavelength was 330 nm and polymethacrylate fluorimeter cuvettes were used. Absorbance and fluorescence titration with DNA. The concentrations of calf thymus DNA stock solution was determined spectophotometrically using the following molar absorptovity values: 1.32×10^4 M^−1 cm^−1 (per base pair) at 260 nm. All experiments were done in 20 mM sodium phosphate buffer at 25° C. and polymethacrylate fluorimeter cuvettes were used. The same amount of DNA was added to both sample and reference cuvettes during UV/Vis titration. Determination of excited state lifetimes. The concentration of compound solution was 10 μM in 20 mM sodium phosphate buffer. The photoluminescence lifetime measurements were conducted by exciting the samples with the output of a Nd:VO—4 (Spectra-Physics Vanguard, 2 W, 532 nm, 76 MHz, 10 ps) pumped R6G dye laser (Coherent 702-1). The output of the dye laser (600 nm, Rhodamine 6G) was cavity dumped at 1.9 MHz and frequency doubled using a BBO crystal to excite the fluorophore (the excitation wavelength used was 290 nm). Samples were excited with <1 mW power and the emission was collected at right angles onto a Chromex S3 500 is 0.5 m imaging monochromator with a 50 g/mm grating and 0.5 nm resolution. Output of the monochromator is focused into a Hamamatsu C5680 streak camera operating at a 20 ns window for the fluorophore. Intensity analysis was carried out by integrating the spectral profile in time on the streak camera. Lifetime analysis over 6-7 lifetimes of the fluorophore was conducted by binning the photoluminescence intensity collected on the streak camera over a 20 nm spectral window at the centroid value of the emission of the fluorophore. Ethidium bromide displacement. […]

The nature of data set [2]: Fluorometric (emission) determination of pKa. It counts as physicochemical. The method, then: General information. ^1H, ^13C and ^19F NMR were collected on a Varian Gemini 300 MHz NMR spectrometer and a Bruker 300 MHz NMR spectrometer. Mass spectrometry data was collected on a Jeol JMS-600H. UV spectra were recorded on a Shimadzu UV-2100. Fluorescence spectra were obtained with SPEX FluoMax spectrofluorimeter using right-angle geometry. pH was adjusted with AB 15 plus pH meter (Accument) after standardization at 25° C. All buffers were prepared and pH-adjusted at room temperature (25° C.). Plasmid DNA Photocleavage. pBR322 plasmid DNA (4,361 b/p; from BioLabs Inc., 1 μg/μL solution in 10 mM Tris-HCl (pH 8.0), and 1 mM EDTA buffer) was diluted to a concentration of 0.01 μg/μL. The solution containing cleavage agent, DNA (30 μM/bp) in 20 mM sodium phosphate buffer was incubated for 1 hour at 30° C. Samples were placed on ice at a distance of 20 cm from 200 W Hg—Xe lamp (Spectra-Physics, Laser & Photonics Oriel Instruments with long pass filter with 324 nm cut-off wavelength). Electrophoretic Analysis. The gel electrophoresis was carried out in 1×TBE buffer at 80 V using Miligel FisherBiotech Horizontal Electrophoresis System. All gels were run on 1% agarose slab gels. Before loading, the DNA samples were mixed with 0.33 volume of tracking dye containing bromophenol blue (0.25%) and glycerol (30%) in water. After staining in ethidium bromide solution (2 μg/ml) for 1 hour, the gel was washed with water and pictures were taken with Polaroid 3000ISO type 667 film. The relative quantities of the supercoiled, nicked, and linear DNA were calculated by integrating the “area” of each spot by the image analyzer software Total/Lab (Nonlinear Dynamics Ltd., UK). The amount of supercoiled DNA was multiplied by factor of 1.4 to account for reduced ethidium bromide intercalation into supercoiled DNA. pH titration by ^1H-NMR. pH* of compound 8 (3 mM) solution in D2O containing 0.05 wt % 3-(trimethylsilyl)propionic-2,2,3,3-d4 acid, sodium salt (TSP-d4) was adjusted with 10 wt % DCI and NaOD in D2O at 25° C. under argon purged condition. Spectrometric determinations of pKa. pH of 10 μM of compound solution in H2O was adjusted with 10, 100 mM HCl (aq) and NaOH (aq) solution under argon purged condition. Excitation wavelength was 330 nm and polymethacrylate fluorimeter cuvettes were used. Absorbance and fluorescence titration with DNA. The concentrations of calf thymus DNA stock solution was determined spectophotometrically using the following molar absorptovity values: 1.32×10^4 M^−1 cm^−1 (per base pair) at 260 nm. All experiments were done in 20 mM sodium phosphate buffer at 25° C. and polymethacrylate fluorimeter cuvettes were used. The same amount of DNA was added to both sample and reference cuvettes during UV/Vis titration. Determination of excited state lifetimes. The concentration of compound solution was 10 μM in 20 mM sodium phosphate buffer. The photoluminescence lifetime measurements were conducted by exciting the samples with the output of a Nd:VO—4 (Spectra-Physics Vanguard, 2 W, 532 nm, 76 MHz, 10 ps) pumped R6G dye laser (Coherent 702-1). The output of the dye laser (600 nm, Rhodamine 6G) was cavity dumped at 1.9 MHz and frequency doubled using a BBO crystal to excite the fluorophore (the excitation wavelength used was 290 nm). Samples were excited with <1 mW power and the emission was collected at right angles onto a Chromex S3 500 is 0.5 m imaging monochromator with a 50 g/mm grating and 0.5 nm resolution. […]

Values joined by “and” are separate entries in the source; they are usually repeats but may differ in a detail not shown here. Equal entries are not always repeated. Bounds are passed on as bounds.

In data set [1] (higher concentrations of 4), `Cl.Cl.NCCCC[C@H](N)C(=O)Nc1ccc(C#Cc2c(F)c(F)nc(F)c2F)cc1` [Compound 4, (S)-2,6-Diamino-hexanoic acid [4-(2,3,5,6-tetrafluoro-pyridin-4-ylethynyl)-phenyl]-amide dihydrochloride] gave a ds cleavage of at most 50%. The “decrease of total DNA cleavage activity on increasing phosphate buffer from 10 mM to 50 mM” value in data set [1] (pH 5.5, 10 μM) is recorded as 48%; in data set [1] (pH 7, 10 μM), 40%; in data set [1] (pH 8, 10 μM), 34%. The “irradiation time until plasmid DNA is completely consumed” value in data set [1] (pH 6, 10 μM) was at most 5 min. In data set [1] (pH 6, 10 mM scavenger, 5 min irradiation), the “protection of DNA from damage by hydroxyl radical/singlet oxygen scavengers” value was “neither of the additives is able to protect DNA”. Moreover, the “intact DNA (Form I) remained” value in data set [1] (pH 6, 3 minutes of irradiation, 15 μM, 30 μM/bp DNA) turned out to be 16%. Further, the “unreacted DNA (Form I)” value is reported as 60% in data set [1] (pH 7, 3 minutes of irradiation, 15 μM, 30 μM/bp DNA) and 86% in data set [1] (pH 8, 3 minutes of irradiation, 15 μM, 30 μM/bp DNA). Further, in data set [1] (pH 8, after an hour of irradiation, 10 μM), the DNA remains unreacted is on record as around 60%. The “α-pKa lower than the pKa for alanine conjugate 6” value in data set [2] (difference to compound 6) is recorded as around 0.5 units. For the same molecule, the “decrease in the basicity of the α-amino group relative to phenyl conjugate 8” value in data set [2] (difference to compound 8) is listed as 0.5-0.6 pKa units. The pKa1 in data set [2] (emission, α-amino group (4, 6), ε-amino group (7), dihydrochloride) was 7.0 and 6.98.
